# US9175077B2, “Nucleic acids encoding biologically active polypeptides derived from a novel early stage pregnancy factor designated maternin (MA)” (NOBEL BIOSCIENCES LLC, priority 1999, dated 2015)
# “Also recorded” adds a separate entry of the source.
# How the values were obtained:
# [1] = target: T1, hCG receptor (Homo sapiens, UniProt P22888); assay: hCG receptor binding
# T1 construct: host or cells: unspecified cells
# Description: In this regard, unusual β-hCG gene transcripts have been known for several years,^207 and as noted above, among the several related heterodimeric glycoprotein hormones, only β-hCG has multiple genes.
# [2] = Acutely bled rats; type: in vivo, Sprague-Dawley rats; settings: i.p. 24 and 48 hrs after 35-40% blood loss
# Description: To delineate the effects of MA on hematopoiesis in the absence of any external bone marrow suppression, blood (35-40% of total blood volume) was removed from five Sprague-Dawley rats by intracardiac puncture. […] Each panel illustrates the mean values for the three animals treated with MAS1. Thus, MA and related derivatives have potent pro-hematopoietic effects.
# [3] = system: normal human cells; assay: Effects on normal cells in vitro (confocal microscopy, trypan blue, MTT, 3H-thymidine); type: cell-based
# Description: More extensive studies of the effects of MA and with truncated synthetic forms of MA (MAS) on a wide range of other human tumor cells were carried out using three-dimensional confocal microscopy. Cells were cultured and then seeded onto gelatinized glass chamber slides and incubated 24 hrs with the various test materials. The slides were then fixed with formalin and treated serially with Triton X-100 (0.01%) for 10 min at 25°, 0.4 ug/ml fluorescein isothiocyanate (FITC)-labeled Phalloidin (Sigma Chem. Co.) at room temperature for 30 min to bind actin, washed with PBS and the DNA stained with Propidium iodide (PI) (0.5 ug·ml) (Sigma Chemical Co.), for 15 min. The stained slides were washed and mounted on slow fade (Molecular Probes, Inc., Eugene, Oreg.) and examined through a dual emission filter XF53 (Omega, Inc., Brattlesboro, Va.) by fluorescent microscopy. In some experiments only DNA staining was performed. In these instances Triton X-100 was not used. The slides were stained with PI and examined for cell morphology and chromatin degradation under 3D confocal microscopy.
# Untreated cells (first line) show normal morphology. The confocal microscopy results also verified the specificity of MA in killing tumor cells.
# To be certain that this specificity for tumor cells was not simply the consequences of a difference between cycling and non-cycling cells, the following cell-types were also used: proliferating human normal fibroblasts, endothelial cells (HUVEC), and PHA-stimulated lymphocytes. […] In fact, MA actually promoted growth of some of these cells.
# These cells included human, primate, and rodent bone marrow, PBMCs, and human CD4+ T-cells, CD8+ T-cells, CD34+ cells, and macrophages enriched from normal PBMCs, as well as normal human endothelial cells and fibroblasts. Cytotoxicity was assessed by 3H-thymidine incorporation, trypan blue staining, cell numbers, and morphological examination by light and confocal microscopy. Hematopoiesis was not only unimpaired it was promoted. […] These studies were chiefly performed with rats and mice, but also included rhesus macaques treated with 0.2 mg/kg for several months. Like the in vitro results, hematopoiesis was not impaired but instead enhanced.
# [4] = system: SIVMAC 251; assay: SIV infection of rhesus macaque PBMCs (p27); type: cell-based
# Description: One hour later the various polypeptides were added once.
# [5] = system: HIV-1 gene expression; assay: HIV-1 transgenic mice, pups feeding from treated mothers; type: in vivo; settings: for survival / development of pups (qualitative): mothers treated, pups breast fed
# [6] = system: human bone marrow stem cells; assay: Engraftment of ex vivo expanded hematopoietic progenitor cells in BNX-XID mice
# Description: The inventors also investigated the effect of MA on engraftment of human bone marrow stem cells [CD34^+, CD38″ cells, long term cultures after 4 mos, and stromal free cultures] ex vivo expanded hematopoietic progenitor cells in Rats irradiated [Sprague DAwley, 450 Rad] and immunodeficient mice [SCID or BNX-XID mice].
# Measurement of short-term hematopoietic reconstitution kinetics and long term repopulating ability. Just prior to implantation, SCID, BNX-XID-immunodeficient mice and Sprague Dawley rats were exposed to 450 rad total body γ-irradiation. […] But the SCID and BNX-XID immunodeficient mice were repopulated by the cultured, treated human cells.
# [7] = system: Lewis lung (LL) carcinoma cells; assay: Pro-apoptotic effect on cultured Lewis lung carcinoma cells; type: cell-based, mouse; settings: same dose range as cultured human tumor cells
# Description: B16 melanoma and Lewis lung (LL) carcinoma cells were first shown to be susceptible to the pro-apoptotic effects of MA (FIG. 6, Panels C and D) at the same dose range used with cultured human tumor cells. The tumor cells grown in standard culture conditions were used to generate metastatic cancers in pathogen-free 6-8 week old C57/BL mice (Charles River). In one set of experiments, the animals were treated with MAS1 or MAS2 at two doses, 0.1 ug or 1.0 ug either in a pre-treatment protocol (two subcutaneous inoculations 24 and 48 hrs before transplanting the tumor cells).
# [8] = system: human carcinoma and sarcoma cells (PC3, KS Y-1); assay: Xenotransplanted human tumors in immunodeficient mice; type: in vivo
# Description: In the first set of experiments, MA was tested against tumors formed by xenotransplantation of various human carcinoma and sarcoma cells in immunodeficient mice. […] […] Three different synthetic forms of MA were used: full length (MAS3) and the previously described MAS1 and MAS2 (Panel C).
# T1 sequence (P22888 27-699): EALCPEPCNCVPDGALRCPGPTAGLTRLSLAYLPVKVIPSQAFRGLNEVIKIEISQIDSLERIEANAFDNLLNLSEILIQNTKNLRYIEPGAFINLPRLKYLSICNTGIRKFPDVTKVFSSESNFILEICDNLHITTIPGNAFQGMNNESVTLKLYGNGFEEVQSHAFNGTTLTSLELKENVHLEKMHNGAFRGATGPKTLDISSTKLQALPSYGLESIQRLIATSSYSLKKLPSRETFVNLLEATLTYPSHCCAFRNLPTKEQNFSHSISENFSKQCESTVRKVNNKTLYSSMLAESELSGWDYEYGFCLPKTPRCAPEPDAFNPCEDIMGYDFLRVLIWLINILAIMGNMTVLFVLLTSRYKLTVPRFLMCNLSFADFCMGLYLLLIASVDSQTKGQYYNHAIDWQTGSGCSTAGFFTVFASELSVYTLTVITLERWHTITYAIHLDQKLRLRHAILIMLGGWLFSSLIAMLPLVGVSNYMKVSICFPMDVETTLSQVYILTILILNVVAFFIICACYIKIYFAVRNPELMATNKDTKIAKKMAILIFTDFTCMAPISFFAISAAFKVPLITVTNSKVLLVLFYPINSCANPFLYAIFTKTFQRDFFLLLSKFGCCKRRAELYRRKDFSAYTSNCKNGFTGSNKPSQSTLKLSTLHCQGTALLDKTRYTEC
sequence,measurement,setting,value
VVCNYRDVRFESIRLPGCPRGVNPVVSYAVALSCQ [MA],binding to the hCG receptor,[1],does not bind
same,recovery of peripheral blood cells,[2],prompt recovery
same,"inhibition of growth or apoptosis of proliferating normal fibroblasts, HUVEC, PHA-stimulated lymphocytes",[3],no inhibition of growth or evidence of apoptosis
same,"effect on morphology of primary human fibroblasts, cord blood CD34+ cells, CD4+ T cells, macrophages",[3]; 2000 ng/ml,no effect
same,cytopathogenicity / toxic side effects on normal cells in vitro,[3]; concentration ranges and time periods reported,no toxic side effects; also recorded: no cytopathogenicity
same,cytotoxicity on normal cells at higher concentrations,[3]; up to 10× the effective concentrations,no evident cytotoxic effects; also recorded: no evident cytotoxicity
same,inhibition of SIVMAC 251 infection (qualitative),[4],inhibited
same,weight over the ten day period,[5]; 30-150 pmoles,quadrupled their weight
same,animals that eventually died,"[5]; low dose (30 pmoles), after 2 mos",about 50%
same,survival / development of pups (qualitative),[5],survived
same,survival / development of pups (qualitative),[5]; listed as native MA,normal development
same,HIV-1 viral expression in tissues,"[5]; mouse, in vivo",marked inhibition of viral expression
same,CD4,[6],3%
same,CD14,[6],1%
same,CD34,[6],37%
same,susceptibility to pro-apoptotic effects,[7],susceptible
same,tumor regression,[8]; 300-500 ng/day (about 100-200 pmoles) for 2 to 3 weeks,complete tumor regression
same,effect on xenotransplanted tumor (qualitative),[8]; controls at equivalent and higher molar concentrations,marked tumor regression; also recorded: KS tumor abolished
same,inhibition of tumor growth in vivo,"[8]; mouse, in vivo",60-100%
same,blood vessel formation / angiogenesis,[8]; thin sections of the tumors,reduction in blood vessel formation
